Assay results taken from patent US8044066B2, “Derivatives of pyrrolopyridine-2-carboxamides, preparation thereof and therapeutic application thereof” (Sanofi-Aventis, priority 2007, dated 2011).

Legend:
TRPV1 receptor = target: T1, TRPV1 receptor (Rattus norvegicus, UniProt O35433); assay: Inhibition of the current induced with capsaicin on rat DRGs (whole-cell patch-clamp); format: cell-based; details: DRG neuron; compound at 10 nM; capsaicin 1 μM; newborn rat DRG neurons
T1 construct: The neurons of the DRG naturally express the TRPV1 receptor; endogenous in cells; host or cells: primary culture of newborn rat dorsal root ganglion (DRG) neurons
T1 sequence (O35433 whole entry): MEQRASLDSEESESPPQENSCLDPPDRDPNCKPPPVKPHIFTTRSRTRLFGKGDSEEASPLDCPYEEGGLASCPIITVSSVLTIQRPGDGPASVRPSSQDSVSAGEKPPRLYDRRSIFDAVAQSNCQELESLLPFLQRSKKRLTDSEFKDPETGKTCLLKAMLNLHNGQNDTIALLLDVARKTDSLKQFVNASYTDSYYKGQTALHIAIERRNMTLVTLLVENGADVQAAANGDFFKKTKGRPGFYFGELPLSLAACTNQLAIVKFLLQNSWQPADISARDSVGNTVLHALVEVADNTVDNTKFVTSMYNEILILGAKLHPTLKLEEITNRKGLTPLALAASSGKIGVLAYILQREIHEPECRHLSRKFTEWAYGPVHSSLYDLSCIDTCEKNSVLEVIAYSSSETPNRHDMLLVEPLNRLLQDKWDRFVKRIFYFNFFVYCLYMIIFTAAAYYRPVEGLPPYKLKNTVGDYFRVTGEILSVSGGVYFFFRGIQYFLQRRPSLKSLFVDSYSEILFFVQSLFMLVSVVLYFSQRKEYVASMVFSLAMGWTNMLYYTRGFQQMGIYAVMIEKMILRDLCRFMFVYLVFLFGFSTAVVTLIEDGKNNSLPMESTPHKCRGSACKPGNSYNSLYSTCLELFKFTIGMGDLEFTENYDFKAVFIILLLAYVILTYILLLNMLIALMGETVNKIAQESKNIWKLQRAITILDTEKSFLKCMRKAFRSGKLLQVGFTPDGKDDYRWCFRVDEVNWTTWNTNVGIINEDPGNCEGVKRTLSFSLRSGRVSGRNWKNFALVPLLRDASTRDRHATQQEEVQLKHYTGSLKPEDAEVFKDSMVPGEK
Description: Test of Inhibition of the Current Induced with Capsaicin on Rat DRGs
Primary Culture of Rat Dorsal Root Ganglion (DRG) Cells:
The neurons of the DRG naturally express the TRPV1 receptor.
The primary cultures of newborn rat DRGs are prepared using 1-day-old rats. Briefly, after dissection, the ganglions are trypsinized and the cells dissociated by mechanical trituration. The cells are resuspended in an Eagle basal culture medium containing 10% fetal calf serum, 25 mM KCl, 2 mM glutamine, 100 μg/ml gentamicin and 50 ng/ml of NGF, and then deposited on glass slides coated with laminin (0.25×10^6 cells per slide), which are then placed in Corning 12-well dishes. The cells are incubated at 37° C. in a humidified atmosphere containing 5% CO2 and 95% air. […]
The measuring chambers (volume 800 μl) containing the cell preparation are placed on the platform of an inverted microscope (Olympus IMT2) equipped with Hoffman optics (Modulation Contrast, New York) and observed at a magnification of 400×. […] The overall currents (membrane potential set at −60 mV) are recorded with an Axopatch 1D amplifier (Axon Instruments, Foster city, Calif.), connected to a PC running the Pclamp8 software (Axon Instrument). The current plots are recorded on paper and simultaneously digitized (sampling frequency 15 to 25 Hz) and acquired on the hard drive of the PC. […]

With `Cc1nc2cc(NC(=O)c3cc4cccnc4n3-c3ccncc3)ccc2s1` the melting point was 236 to 238 °C.
For `Cc1nc2cc(NC(=O)c3cc4cc(F)cnc4n3Cc3ccncc3)ccc2s1` [Compound 1, N-(2-methylbenzothiazol-5-yl)-5-fluoro-1-[(4-pyridyl)methyl]-1H-pyrrolo[2,3-b]pyridine-2-carboxamide], the inhibition at 0.01 µM (TRPV1 receptor) was 50%.
